Reference: US10426850B2, “Collagen mimetic peptides for targeting collagen strands for in vitro and in vivo imaging and therapeutic use” (The Johns Hopkins University, priority 2011, dated 2019)

Tests used:
[1] = target: T1, thermally-denatured collagen (gelatin) films (Rattus norvegicus, UniProt P02454+P02466); assay: Photo-triggered CMP binding assay on gelatin films
T1 construct: To make gelatin films, the same collagen solution was denatured at 70° C. for 15 minutes; purchased BD Science; host or cells: rat tail
T1 sequence (P02454 152-1207 limits assumed): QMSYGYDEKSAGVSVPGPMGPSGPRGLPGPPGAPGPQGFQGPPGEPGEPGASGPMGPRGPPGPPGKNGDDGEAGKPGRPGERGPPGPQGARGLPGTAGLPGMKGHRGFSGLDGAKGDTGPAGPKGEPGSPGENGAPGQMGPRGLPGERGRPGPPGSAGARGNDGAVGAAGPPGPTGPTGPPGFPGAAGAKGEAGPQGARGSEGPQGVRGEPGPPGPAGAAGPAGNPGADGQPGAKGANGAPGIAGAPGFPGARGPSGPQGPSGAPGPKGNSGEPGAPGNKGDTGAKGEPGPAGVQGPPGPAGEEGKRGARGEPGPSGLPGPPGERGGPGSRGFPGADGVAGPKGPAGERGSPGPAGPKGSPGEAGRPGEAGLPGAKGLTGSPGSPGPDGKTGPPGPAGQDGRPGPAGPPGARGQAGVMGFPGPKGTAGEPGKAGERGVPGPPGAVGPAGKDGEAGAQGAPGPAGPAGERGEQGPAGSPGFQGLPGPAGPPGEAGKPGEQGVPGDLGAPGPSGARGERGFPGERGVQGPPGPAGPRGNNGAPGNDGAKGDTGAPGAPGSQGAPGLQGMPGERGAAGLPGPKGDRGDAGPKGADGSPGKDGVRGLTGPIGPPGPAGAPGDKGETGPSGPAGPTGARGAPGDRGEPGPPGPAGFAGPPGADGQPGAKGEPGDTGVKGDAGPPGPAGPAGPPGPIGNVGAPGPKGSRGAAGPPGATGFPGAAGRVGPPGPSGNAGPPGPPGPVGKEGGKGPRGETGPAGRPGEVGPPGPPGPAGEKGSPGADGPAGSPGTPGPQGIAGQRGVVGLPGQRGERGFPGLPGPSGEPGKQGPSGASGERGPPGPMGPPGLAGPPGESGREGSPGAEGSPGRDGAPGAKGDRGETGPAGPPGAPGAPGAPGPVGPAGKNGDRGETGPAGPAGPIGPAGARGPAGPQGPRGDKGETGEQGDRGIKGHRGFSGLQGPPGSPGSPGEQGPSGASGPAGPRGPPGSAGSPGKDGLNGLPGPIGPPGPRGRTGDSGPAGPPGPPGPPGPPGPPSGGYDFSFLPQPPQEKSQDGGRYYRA
T1 sequence (P02466 86-1125 limits assumed): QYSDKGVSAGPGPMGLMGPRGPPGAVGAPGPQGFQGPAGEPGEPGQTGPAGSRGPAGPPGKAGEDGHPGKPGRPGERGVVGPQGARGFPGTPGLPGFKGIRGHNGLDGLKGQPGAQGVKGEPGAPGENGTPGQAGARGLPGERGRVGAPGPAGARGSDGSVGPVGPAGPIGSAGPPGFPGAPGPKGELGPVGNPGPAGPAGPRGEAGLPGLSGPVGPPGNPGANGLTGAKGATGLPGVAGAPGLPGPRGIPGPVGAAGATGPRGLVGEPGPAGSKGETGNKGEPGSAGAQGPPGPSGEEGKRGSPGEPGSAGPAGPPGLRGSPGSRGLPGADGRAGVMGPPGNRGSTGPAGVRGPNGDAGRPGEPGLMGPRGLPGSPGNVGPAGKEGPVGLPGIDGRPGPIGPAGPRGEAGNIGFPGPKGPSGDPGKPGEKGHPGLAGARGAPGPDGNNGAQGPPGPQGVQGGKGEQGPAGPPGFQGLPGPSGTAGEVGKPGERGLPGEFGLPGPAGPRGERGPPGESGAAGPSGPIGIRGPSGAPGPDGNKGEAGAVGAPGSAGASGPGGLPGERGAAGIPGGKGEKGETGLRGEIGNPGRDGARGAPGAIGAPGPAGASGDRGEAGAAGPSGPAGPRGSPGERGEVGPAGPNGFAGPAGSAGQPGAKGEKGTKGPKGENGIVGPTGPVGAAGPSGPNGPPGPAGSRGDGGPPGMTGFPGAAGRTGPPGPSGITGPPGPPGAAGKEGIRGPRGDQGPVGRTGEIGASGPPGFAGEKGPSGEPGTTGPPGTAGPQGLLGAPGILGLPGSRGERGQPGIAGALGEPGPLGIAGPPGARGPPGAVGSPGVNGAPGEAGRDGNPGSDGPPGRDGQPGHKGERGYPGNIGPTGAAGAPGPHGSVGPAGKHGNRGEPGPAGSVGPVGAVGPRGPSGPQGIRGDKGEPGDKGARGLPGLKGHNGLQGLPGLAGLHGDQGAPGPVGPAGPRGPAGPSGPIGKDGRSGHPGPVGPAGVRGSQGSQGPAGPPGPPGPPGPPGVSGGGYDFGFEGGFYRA
Description: Collagen/gelatin binding assays. Collagen solution (200 μL, 3.71 mg/mL, type I rat tail, BD Science) in 0.02 N acetic acid was added to each well of a 96-well black/clear-bottom plate (Costar) and air-dried. To make gelatin films, the same collagen solution was denatured at 70° C. for 15 minutes before applying to the well. The dried films were neutralized and washed with 1×PBS buffer (pH 7.4) and deionized water. PBS solution of carboxyfluorescein-labeled caged CMP (40 μL, 50 μM, unless indicated otherwise) pre-equilibrated at 4° C. was added onto each reconstituted collagen or gelatin film and exposed to 365 nm UV light (10 mW/cm^2, from mercury arc lamp) for 11 minutes on ice. Wells for the UV-negative control groups were covered with aluminum foil to block UV exposure. After incubation at 4° C. for over 3 hours (unless indicated otherwise), the unbound materials were removed by rinsing with PBS buffer and deionized water. The films were allowed to dry in dark, after which the fluorescence (ex: 489 nm, em: 533 nm) was measured with a SpectraMax Gemini XPS microplate reader (Molecular Devices). Each binding experiment was done in triplicate.

type I collagen films = target: T2, type I collagen films (Rattus norvegicus, UniProt P02454+P02466); assay: Quantification of CF(GPO)9 bound on type I collagen films; type: binding; details: UV+, collagenase digestion, standard curve
T2 construct: Collagen solution (200 μL, 3.71 mg/mL, type I rat tail, BD Science); purchased BD Science; host or cells: rat tail
T2 sequence (P02454 152-1207 limits assumed): as the sequence (P02454 152-1207 limits assumed) above
T2 sequence (P02466 86-1125 limits assumed): as the sequence (P02466 86-1125 limits assumed) above
Description: Quantification of CF(GPO)9 (SEQ ID NO: 10) bound on type I collagen films. Following photo-induced binding, CMP-bound collagen films (e.g. the UV+ group of FIG. 10A) were digested with 200 μL of collagenase (Sigma, C0130) solutions (1 mg/mL) in TESCA buffer (50 mM TES buffer with 1.36 mM CaCl2, pH 7.4) for 1 hr at 37° C. The digested solutions were directly used for fluorescence measurement (ex: 489 nm, em: 533 nm). For the standard curve, a series of solutions containing known amounts of CF^NB(GPO)9 (SEQ ID NO: 4) (0 to 0.35 nmol) were applied to blank collagen films and air-dried, followed by collagenase digestion and fluorescence measurement as described above. The amount of bound CF(GPO)9 (SEQ ID NO: 10) was determined by comparing the fluorescence intensity of the digested collagen/CMP solutions with the standard curve, and the binding density was determined by dividing the amount bound by the area of the well. The experiment was performed in triplicate.

fibronectin and laminin = assay: SDS-PAGE staining by heat activated fluorescent CMP, other ECM proteins; type: binding, bovine (fibronectin), murine (laminin); details: 6 μM, 2 μg protein per lane
Description: Acid soluble rat-tail type I collagen, bovine type II collagen, and mouse type IV collagen were purchased from BD Bioscience (San Jose, Calif.). Complement component C1q from human serum, fibronectin from bovine plasma, and laminin from Engelbreth-Holm-Swarm murine sarcoma basement membrane were purchased from Sigma-Aldrich. ProMMP-1, and p-aminophenylmercuric acetate were acquired from EMD millipore. Human umbilical vein endothelial cells (HUVECs) and EGM-2 cell growth media were obtained from Lonza (Walkersville, Md.). Precast NuPAGE® Novex 4-12% Bis-Tris Gel (1.0 mm, 12 well), Novex® Sharp unstained protein standard, and SDS-PAGE running buffer, sample buffer, and other SDS-PAGE reagents were purchased from Life Technologies.
SDS-PAGE staining and imaging. Proteins were resolved on NuPAGE® Novex 4-12% bis-tris gels under denaturating conditions using an XCell SureLock™ Mini-Cell electrophoresis system (Life Technologies). NuPAGE® MOPS SDS running buffer containing 50 mM MOPS, 50 mM Tris Base, 0.1% SDS, and 1 mM EDTA (pH 7.7) was used. […] The fluorescence intensities of the protein bands were quantified using GE ImageQuant™ TL software. After fluorescence imaging, all gels were further stained with coomassie brilliant blue (CB) G-250 (Bio-Rad) for 2-3 hr followed by washing, and imaging under white light illumination using a Gel Doc EQ system (BioRad).

| binding (fluorescence intensity of film) ([1]; caged, UV−) | level of binding on gelatin relative to collagen ([1]; photo-activated (UV+)) | density of photo-induced CMP binding to intact collagen (type I collagen films) [nmol/cm^2] | Substance | staining of fibronectin and laminin bands (fibronectin and laminin) |
| --- | --- | --- | --- | --- |
| negligible | an order of magnitude higher | 0.56±0.03 | CF-GGG-(GPO)4^NBGPO(GPO)4 [CF^NB(GPO)9] | – |
| – | – | – | CF-GGG-(GPO)9 [CF(GPO)9] | no affinity to fibronectin and laminin |
